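These data come from cells grown in 96-well plates and exposed to compound for 48 hours at five concentrations. GI50 is the concentration that inhibits growth by half.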 Active and inactive are the calls of the source. No stated cut-off is given here; in the data, active = GI50 up to about 1.1 µM and inactive = higher.
What was measured:
Experiment in all cases: growth of human tumour cells (NCI), 48 h
SF-539 = system: SF-539
HL-60 = system: HL-60
A498 = system: A498
SF-268 = system: SF-268
OVCAR-4 = system: OVCAR-4
A549 = system: A549
M14 = system: M14
OVCAR-8 = system: OVCAR-8
SW-620 = system: SW-620
SK-MEL-2 = system: SK-MEL-2
HT-29 = system: HT-29
MCF7 = system: MCF7
CAKI-1 = system: CAKI-1
EKVX = system: EKVX
SK-OV-3 = system: SK-OV-3
NCI/ADR-RES = system: NCI/ADR-RES
MOLT-4 = system: MOLT-4
HOP-92 = system: HOP-92
UO-31 = system: UO-31

Measured: GI50

CN(C)CCCc1c2ccccc2nc2ccc(Cl)cc12
inactive: SF-539 16.6 µM | HL-60 16 µM | A498 19.2 µM | SF-268 14.6 µM | OVCAR-4 18.6 µM | A549 13.9 µM | M14 14.2 µM | OVCAR-8 15.9 µM | SW-620 12.9 µM | SK-MEL-2 19.9 µM | HT-29 13.2 µM | MCF7 6.76 µM | CAKI-1 15.2 µM | EKVX 17 µM | SK-OV-3 20.7 µM | NCI/ADR-RES 21.9 µM | MOLT-4 17.9 µM | HOP-92 9.53 µM

Cc1ccc(-n2cc(-c3ccc(Cl)cc3)c3c2N=CN2N=C(c4ccco4)NC32)cc1 (configuration not stated)
inactive: SF-539 15.2 µM | HL-60 > 100 µM | A498 4.22 µM | SF-268 15.3 µM | OVCAR-4 1.93 µM | A549 15 µM | M14 28.8 µM | OVCAR-8 6.28 µM | SW-620 8.87 µM | SK-MEL-2 10 µM | HT-29 > 100 µM | MCF7 23.7 µM | CAKI-1 10.1 µM | EKVX 17.7 µM | SK-OV-3 4.13 µM | NCI/ADR-RES 7.5 µM | UO-31 5.05 µM | HOP-92 2.09 µM

Cc1cccc2oc3c(c(=O)c12)CC(O)C(C)(C)O3 (configuration not stated)
inactive: SF-539 > 100 µM | HL-60 23.9 µM | A498 > 100 µM | SF-268 > 100 µM | OVCAR-4 > 100 µM | A549 > 100 µM | M14 > 100 µM | SW-620 51.6 µM | SK-MEL-2 > 100 µM | HT-29 > 100 µM | MCF7 > 100 µM | CAKI-1 > 100 µM | EKVX > 100 µM | SK-OV-3 > 100 µM | NCI/ADR-RES 79.1 µM | MOLT-4 38.5 µM | UO-31 > 100 µM | HOP-92 > 100 µM

O=C1C/C(=N/c2ccc(Cl)cc2)C(c2ccccc2)N1c1ccccc1 (configuration not stated)
inactive: SF-539 14 µM | HL-60 2.96 µM | A498 19.3 µM | SF-268 3.6 µM | OVCAR-4 14.3 µM | A549 17.4 µM | M14 5.9 µM | SW-620 10.2 µM | SK-MEL-2 2.7 µM | HT-29 5.62 µM | MCF7 10 µM | CAKI-1 1.59 µM | EKVX > 100 µM | SK-OV-3 5.92 µM | NCI/ADR-RES 7.06 µM | MOLT-4 7.89 µM | UO-31 5.41 µM | HOP-92 10.3 µM
